Results on one molecule are retold here after patent publication US20200397763A1, “PARENTERAL FORMULATION MATERIALS AND METHODS FOR 40-O-CYCLIC HYDROCARBON ESTERS AND RELATED STRUCTURES” (Biotronik AG, priority 2018, published 2020).

The nature of data set [1]: Rat intravenous PK of the EtOH / SEQ ID NO:1 formulation without nanoparticles. To be noted: for AUC(0-inf): Sprague-Dawley, rat, rats, intravenous 15 mg/kg, EtOH / 20% SEQ ID NO:1 in saline, without nanoparticles, LCMS. The class given is in vivo, Sprague-Dawley rats. How it is done: It is understood the concentration may be optimized according to desired dosing schemes, routes of administration, etc.
The PK studies were conducted around the formulation from Example I. Specifically, Sprague-Dawley rats were dosed intravenously at 15 mg/kg, with blood samples being collected prior to dosing, in order to establish baseline, then post dosing at set intervals up to 24 hours. Drug bioanalytical measurements were conducted by LCMS.
Results (AUCinf) reported in the prior art are from blood plasma, whereas the present results are from both plasma and whole blood. This was done to allow for direct comparison to the previous studies. Drug area under the curve versus time ((AUCinf), total drug dose exposure) was calculated accordingly.
Sirolimus (rapamycin) was used and formulated in accordance with those steps described previously at Example I. Specifically, sirolimus was combined with SEQ ID NO:1 but without nanoparticles and tested against the studies shown in the prior art, namely, sirolimus formulated with SEQ ID NO:1 but with nanoparticles.

The conditions of data set [2]: prior art; blood plasma; 15 mg/kg; SEQ ID NO:1 with nanoparticles; cited from earlier work.

With `CO[C@H]1C[C@@H]2CC[C@@H](C)[C@@](O)(O2)C(=O)C(=O)N2CCCC[C@H]2C(=O)O[C@H]([C@H](C)C[C@@H]2CC[C@@H](O)[C@H](OC)C2)CC(=O)[C@H](C)/C=C(\C)[C@@H](O)[C@@H](OC)C(=O)[C@H](C)C[C@H](C)/C=C/C=C/C=C/1C` [Sirolimus, rapamycin], the results for the AUC(0-inf) in data set [1] (plasma) and in data set [1] (whole blood) were 5180 ± 130 ng·h/mL and 5060 ± 541 ng·h/mL, respectively. Besides, the “difference between the AUCinf results of the current studies and the prior art” value in data set [1] (sirolimus without nanoparticles (current) versus with nanoparticles (prior art)) came out at 20%. Further, in data set [2], the AUCinf was 6017 ± 647 ng·h/mL.

Usually AUC(0-inf) stands for the area under the concentration-time curve extrapolated to infinity. Read a high AUC(0-inf) as more exposure.
